Consider 3 molecules from PMC5142624, “Reduced Activity of Mutant Calcium-Dependent Protein Kinase 1 Is Compensated in Plasmodium falciparum through the Action of Protein Kinase G” (mBio, 2016).

Assay [1] concerns wild-type T. gondii parasites. Further details: method as in PMID 20436472, PMID 20485436. Conditions: cited from earlier work.
The target of assay [2] is T1, recombinant PfCDPK1 WT (Plasmodium falciparum, UniProt P62344).
T1 construct: made in house; host or cells: Escherichia coli BLR(DE3)pLysS, pGEX4T1
T1 sequence (P62344 whole entry): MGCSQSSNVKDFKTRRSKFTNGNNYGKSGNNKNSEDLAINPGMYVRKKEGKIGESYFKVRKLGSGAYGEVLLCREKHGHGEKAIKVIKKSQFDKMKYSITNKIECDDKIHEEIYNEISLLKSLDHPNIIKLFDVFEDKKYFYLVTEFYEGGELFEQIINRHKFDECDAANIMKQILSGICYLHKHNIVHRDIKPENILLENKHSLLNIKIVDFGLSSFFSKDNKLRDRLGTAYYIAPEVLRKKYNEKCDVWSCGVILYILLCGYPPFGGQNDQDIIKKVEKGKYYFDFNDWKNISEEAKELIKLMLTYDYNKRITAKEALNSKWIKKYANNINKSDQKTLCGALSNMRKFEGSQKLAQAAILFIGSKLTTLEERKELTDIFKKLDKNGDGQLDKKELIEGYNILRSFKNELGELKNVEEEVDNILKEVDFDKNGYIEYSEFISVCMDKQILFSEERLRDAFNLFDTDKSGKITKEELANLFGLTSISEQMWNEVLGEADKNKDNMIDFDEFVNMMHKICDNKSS
Kind of assay: BKI library screening, in vitro kinase assay (KinaseGlo). In kind it is biochemical. The following applies: 10 µM ATP, 90 min at 30°C; two independent experiments in triplicate. Here is the method:
(§1) Recombinant PfCDPK1 WT and PfCDPK1 T145M were used in the in vitro kinase assay to calculate the IC50s for the library of bumped kinase inhibitors. Thirty-one BKIs belonging to the pyrazolopyrimidine scaffold were screened ([18][–][21]). Protein kinase activity of recombinant enzymes was assayed using 20 µM synthetic peptide substrate […] […] These reactions were performed in a buffered solution containing 1 mM EGTA (pH 7.2), 10 mM MgCl2, 20 mM HEPES (pH 7.5), 0.1% BSA, and enzyme activation reagent containing 2 mM CaCl2. The reactions were initiated with addition of 10 µM ATP, and the reaction mixtures were incubated for 90 min at 30°C. […] The KinaseGlo (Promega, Madison, WI) luminescence-based assay, in which luminescence is inversely related to kinase activity and directly related to […], was used as previously described ([21]).
(Kinase-Glo measures the ATP left after a reaction by luminescence.)

For assay [3], the system named is recombinant PfCDPK1 WT. Described as above. The format is biochemical, Plasmodium falciparum. The following applies: PfCDPK1 WT vs T145M recombinant enzymes. Here is the method:
as §1

Assay [4] deals with T2, recombinant PfCDPK1 T145M (Plasmodium falciparum, UniProt P62344, T145M).
T2 construct: Full-length CDPK1 WT and five mutant proteins with different substitutions at the gatekeeper position (residue 145) were expressed in E. coli; made in house; host or cells: Escherichia coli BLR(DE3)pLysS, pGEX4T1
T2 sequence (P62344 whole entry T145M): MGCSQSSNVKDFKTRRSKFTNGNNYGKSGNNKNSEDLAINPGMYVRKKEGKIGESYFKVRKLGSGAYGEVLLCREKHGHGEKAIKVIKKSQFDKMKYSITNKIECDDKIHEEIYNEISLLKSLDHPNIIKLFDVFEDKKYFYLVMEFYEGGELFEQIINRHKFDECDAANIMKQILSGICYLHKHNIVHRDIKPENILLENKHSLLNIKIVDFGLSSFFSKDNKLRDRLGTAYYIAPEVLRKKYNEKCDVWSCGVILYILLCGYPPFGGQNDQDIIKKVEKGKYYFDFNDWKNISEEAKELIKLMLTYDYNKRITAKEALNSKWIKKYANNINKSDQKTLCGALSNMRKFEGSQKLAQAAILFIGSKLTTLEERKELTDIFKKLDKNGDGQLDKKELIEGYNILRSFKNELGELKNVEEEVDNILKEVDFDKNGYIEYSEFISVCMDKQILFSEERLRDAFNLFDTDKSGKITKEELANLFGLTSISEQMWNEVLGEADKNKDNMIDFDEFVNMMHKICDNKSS
The description is as above. Conditions: methionine gatekeeper mutant T145M; 10 µM ATP, 90 min at 30°C; read-out: PfCDPK1Met IC50. In kind it is biochemical. How it is done:
as §1

Assay [5] deals with recombinant P. falciparum cGMP-dependent protein kinase (PfPKG) (Plasmodium falciparum, UniProt Q8I719). Nature of the assay: PfPKG in vitro kinase activity assay (luminescence). The format is biochemical. Conditions: 2 µM ATP, 20 µM cGMP, 2 h at 30°C; read-out: IC50 (SD) for PfPKG. How it is done: Compound efficacy against recombinant P. falciparum cGMP-dependent protein kinase (PfPKG) was determined using a novel nonradioactive and high-throughput assay. This assay evaluates protein kinase activity by measuring changes in […] ATP concentration via luminescence after PfPKG enzyme phosphorylation of a peptide substrate, PKCtide ([…]) (SignalChem, Richmond, BC, Canada). The in vitro kinase assay was set up with 26 µM PKCtide, 30 nM PfPKG, and 20 µM cGMP in a buffered solution containing 20 mM β-glycerol phosphate, 20 mM MgCl2, 25 mM HEPES (pH 7.5) (KOH), 0.1% bovine serum albumin (BSA), and 2 mM DTT ([37]). The reaction was initiated with addition of 2 µM ATP. The reaction mixture was incubated at 30°C and 90-rpm agitation for 2 h. Reaction wells with no PfPKG, no peptide substrate, and no cGMP were included in each assay plate as internal negative controls.
Chain of recombinant P. falciparum cGMP-dependent protein kinase (PfPKG) (Q8I719 whole entry): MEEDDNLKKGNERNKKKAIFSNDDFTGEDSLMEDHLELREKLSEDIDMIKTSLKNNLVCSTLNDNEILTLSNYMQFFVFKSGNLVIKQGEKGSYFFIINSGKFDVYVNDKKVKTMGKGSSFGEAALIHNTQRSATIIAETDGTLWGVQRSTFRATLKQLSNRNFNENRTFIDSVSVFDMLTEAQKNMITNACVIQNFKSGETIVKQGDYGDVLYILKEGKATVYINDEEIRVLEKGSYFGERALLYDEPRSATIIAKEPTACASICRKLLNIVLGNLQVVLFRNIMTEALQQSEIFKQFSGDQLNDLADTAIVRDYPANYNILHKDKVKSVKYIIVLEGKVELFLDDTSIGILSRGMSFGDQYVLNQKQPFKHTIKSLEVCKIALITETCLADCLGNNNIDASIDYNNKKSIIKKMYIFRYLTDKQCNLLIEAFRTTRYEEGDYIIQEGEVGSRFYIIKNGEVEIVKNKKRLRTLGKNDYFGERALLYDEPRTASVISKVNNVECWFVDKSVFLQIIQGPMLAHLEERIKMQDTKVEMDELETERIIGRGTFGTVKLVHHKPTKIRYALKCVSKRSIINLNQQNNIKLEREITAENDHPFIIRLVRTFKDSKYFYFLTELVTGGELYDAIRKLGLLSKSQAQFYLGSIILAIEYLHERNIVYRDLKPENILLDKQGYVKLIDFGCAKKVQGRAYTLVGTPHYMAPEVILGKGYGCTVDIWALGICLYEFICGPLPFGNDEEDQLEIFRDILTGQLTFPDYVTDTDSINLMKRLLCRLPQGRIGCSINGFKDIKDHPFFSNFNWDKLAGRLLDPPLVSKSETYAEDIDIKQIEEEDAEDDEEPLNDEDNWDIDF

For assay [6], the system named is wild-type parasites (P. falciparum NF54). Nature of the assay: Asexual parasite growth inhibition (SYBR green I assay). In kind it is cell-based, Plasmodium falciparum. Conditions: BKIs.
Assay [7] deals with CDPK1 T145M parasites. The description is as above. The format is cell-based, Plasmodium falciparum. Conditions: BKIs. How it is done: The parasites were electroporated as described earlier ([39]). Briefly, the ring-stage parasites at ~5% parasitemia were electroporated with 50 μg each of pL6CK1Met or pL6CK1Ser plasmid and pUF1 plasmid with the settings of 0.31 kV, 960 μF, and maximum capacitance on a Bio-Rad Gene Pulser II. WR99210 and DSM267 ([40]) were applied at the concentrations of 2 and 150 nM, respectively, after 24 h of transfection. The transgenic PfCDPK1 T145M parasites were cloned by limiting dilution in a 96-well plate. The PfCDPK1 gene sequence was amplified using primers ck1f1 (5′ […] 3′) and ck1r3wt (5′ […] 3′) specific for the region outside the homology arm of the plasmid, and the desired mutation was confirmed by DNA sequencing.
Asexual parasites were synchronized for two consecutive cycles by sorbitol treatment ([41]) and set up at 0.2% trophozoite stage (30 to 36 h postinvasion) in a 96-well plate. The growth progression was monitored for 7 days, and the growth rate of the parasites was calculated by sampling the culture every 24 h and measuring the fluorescence readout using the SYBR green I assay as described earlier ([42], [43]).

Broadly, the IC50 is the concentration at which inhibition is half-maximal. Usually EC50 stands for the concentration that produces a half-maximal response. A higher EC50 goes with weaker potency.

Regarding `Cc1cccc(Cc2nn(C(C)(C)C)c3ncnc(N)c23)c1` [3MBPP1], in assay [1], the “effect on microneme secretion and invasion of host cells” value was “block in microneme secretion and subsequent invasion of host cells”.

Take `CCOc1ccc2cc(-c3nn(CC4CCN(C)CC4)c4ncnc(N)c34)ccc2c1` [compound 1294]: the IC50 was 162 nM in assay [2], above 2000 nM in assay [4] and 262 nM in assay [5]. The “fold-greater effect in vitro on wild-type enzyme than on methionine mutant” value in assay [3] is reported as 10 fold. The EC50 in assay [6] amounted to 10900 nM; in assay [7] it was 6970 nM.

Take `CCOc1ccc2cc(-c3nn(CC4CCN(C)CC4)c4ncnc(N)c34)ccc2n1` [compound 1369]: the half-inhibitory concentration (IC50) in assay [2] was 438 nM; in assay [4], above 2000 nM; in assay [5] it was above 2000 nM.
